In article PMC9785474, “Solubility Enhancement of Dihydroquercetin via “Green” Phase Modification” (International Journal of Molecular Sciences, 2022):
In brackets after ≈: the same amount, converted by molar mass.

Key:
[1] = Solubility by sedimentation method (centrifugation, UV spectrometry); format: physicochemical; settings: for solubility: water, thermodynamic from solid
Procedure: Solubility is one of the key parameters to describe the biopharmaceutical characteristics of active pharmaceutical ingredients. There are different ways of solubility determination. One of them is an express method widely used in pharmaceutical science, described in European Pharmacopeia (EP). More accurate data may be obtained by the sedimentation method. […] To determine the concentration of DHQ solutions, UV spectrometry was applied. Three hundred mg of each DHQ sample were dissolved in 10.0 mL of […] and centrifuged for 5 min at 10,000 rpm by centrifuge MiniSpin® (Eppendorf AG, Hamburg, Germany). The analyzed solutions were prepared by dilution of the supernatant 50 μL up to 25 mL with distilled water. The UV spectra were recorded with a Cary-100 (Varian, Palo Alto, CA, USA). The accurate concentrations were calculated using a calibration curve.

[2] = ABTS/PP antioxidant capacity assay; settings: for Antioxidant Capacity, n-Value: ABTS•+ radicals scavenged by one molecule of antioxidant, 6 min, 730 nm; for Antioxidant Capacity, n-Value / Antioxidant Capacity, ΔA: mean ± SD; for Antioxidant Capacity, ΔA: absorbance decrease at 730 nm, 6 min incubation at 32 °C, corrected for self-bleaching; for Changes of ΔA and n-values from DHQR (paired Student's t-test): compared with DHQR
Procedure: To compare the antioxidant capacity of DHQ in different forms, we employed the ABTS/PP assay, as reported by Re et al., with some modifications. In brief, an antioxidant was added to the pre-generated stock solution of radical-cation ABTS^•+, and then, after 6 min incubation in the dark place at 32 °C, the decrease in the absorption at 730 nm was calculated. ABTS^•+ self-bleaching after 6 min was measured in the same conditions without the addition of antioxidants. The initial ABTS^•+ absorbance in the incubation mix before the addition of an antioxidant was adjusted to […]. The stock solution of the radical-cation ABTS^•+ was prepared by the incubation of the ABTS with PP at final concentrations of 7 mM and 2.5 mM, respectively, during 12–16 h in the dark. UV-Vis spectra were obtained on a Cary 100 (Varian, Palo Alto, CA, USA).
The absorbance decrease ∆A at 730 nm due to inhibition of radical-cation ABTS^•+ was calculated as follows (5):∆A = A0 − A1 − ∆Asb,(5) where A0 and A1 are the ABTS^•+ absorbances at 730 nm, pathlength 1 cm, before and 6 min after the antioxidant addition, respectively. The self-bleaching of radical-cation ABTS^•+ ∆Asb was calculated as the difference between the ABTS^•+ absorbance right after the addition of stock ABTS^•+ to PBS to give absorbance 1.0 ± 0.1 and 6 min later.
The amount of ABTS^•+ radicals scavenged by one molecule of antioxidant (n-value) was calculated according to the Equation (6):(6) N=CABTS·+/Cantioxidant=ΔA/ε · Cantioxidant, where CABTS^•+ is the concentration of the scavenged ABTS^•+, ε is the extinction at 730 nm 15,000 L·mol^−1·cm^−1, l is the optical pathlength 1 cm, and Cantioxidant is the concentration of the antioxidant.

[3] = Solubility by European Pharmacopeia (EP) express method; format: physicochemical; settings: for solubility: thermodynamic from solid; for solubility / Term by EP: water solubility, ambient conditions, European Pharmacopeia 10.0
Procedure: Solubility is one of the key parameters to describe the biopharmaceutical characteristics of active pharmaceutical ingredients. There are different ways of solubility determination. One of them is an express method widely used in pharmaceutical science, described in European Pharmacopeia (EP). More accurate data may be obtained by the sedimentation method.
The analysis was performed in accordance with the pharmacopoeial monograph of European Pharmacopeia 10.0 [52] at ambient conditions.

[4] = 300 mg in 10.0 mL, centrifuged 5 min at 10,000 rpm, UV spectrometry of supernatant, mean ± SD

solubility [1, 4]	solubility [3]	Term by EP [3]	Increase of solubility compared with DHQR, sedimentation method [1]	Enhancement of water solubility compared with DHQR, EP method ([3]; compared with DHQR)	Solubility, By Sedimentation Method [1, 4]	SMILES	Antioxidant Capacity, n-Value [2]	Antioxidant Capacity, ΔA [2]	Changes of ΔA and n-values from DHQR (paired Student's t-test) [2]
700 ± 20 µg/mL (≈ 2.3 mM)	100 to 1000 µg/mL (≈ 0.329 to 3.29 mM)	very slightly soluble	–	–	–	O=C1c2c(O)cc(O)cc2OC(c2ccc(O)c(O)c2)C1O (stereo not shown) [DHQR, 2-(3,4-dihydroxyphenyl)-3,5,7-trihydroxy-2,3-dihydro-4H-1-benzopyran-4-one, reference compound]	7.30 ± 0.24	0.511 ± 0.017	–
3090 ± 90 µg/mL (≈ 10.2 mM)	–	soluble	4.4 times	at least 30 fold	–	O=C1c2c(O)cc(O)cc2O[C@H](c2ccc(O)c(O)c2)[C@H]1O [DHQE]	7.19 ± 0.37	0.504 ± 0.026	statistically non-significant changes
–	1000 to 10000 µg/mL (≈ 3.29 to 32.9 mM)	slightly soluble	3.1 times	–	2140 ± 60 µg/mL (≈ 7.03 mM)	O=C1c2c(O)cc(O)cc2O[C@H](c2ccc(O)c(O)c2)[C@H]1O [DHQA]	7.13 ± 0.19	0.499 ± 0.014	statistically non-significant changes
